Organism: Rattus norvegicus
Experiment: Open TG-GATES - Regimen: Daily Repeat
Format: toxicity, organism-based, Sprague-Dawley
Design: regimen Daily Repeat, gender Male, age 6 weeks
Settings: in vivo, po, 0 mg/kg, route gavage, dose level Control; for APTT / Bas / Eos / Fbg / Hb / Ht / Lym / MCH / MCHC / MCV / Mono / Neu / PT / Plat / RBC / Ret / WBC: tissue Blood; for KIDNEY_L / KIDNEY_R / KIDNEY_TOTAL: tissue Kidney; for LIVER: tissue Liver; for A/G / ALP / ALT / AST / BUN / CRE / Ca / Cl / DBIL / GLC / IP / K / LDH / Na / PL / RALB / TBIL / TC / TG / TP / gamma-GTP: tissue Plasma

SMILES: COc1ccc(O)c(C(C)(C)C)c1.COc1ccc(O)cc1C(C)(C)C [BUTYLATED HYDROXYANISOLE]
- TERMINAL_BW (72 h, time 3 day): 225.6 g
- APTT (72 h, time 3 day): 15.7 s
- Bas (72 h, time 3 day): 0.2%
- Eos (72 h, time 3 day): 0.8%
- Fbg (72 h, time 3 day): 265.6 mg/dL
- Hb (72 h, time 3 day): 12.9 g/dL
- Ht (72 h, time 3 day): 38%
- Lym (72 h, time 3 day): 71.6%
- MCH (72 h, time 3 day): 20.9 pg
- MCHC (72 h, time 3 day): 34%
- MCV (72 h, time 3 day): 61.5 fL
- Mono (72 h, time 3 day): 2.4%
- Neu (72 h, time 3 day): 24.3%
- PT (72 h, time 3 day): 11.5 s
- Plat (72 h, time 3 day): 140.6 x10_4/uL
- RBC (72 h, time 3 day): 619 x10_4/ul
- Ret (72 h, time 3 day): 6.6%
- WBC (72 h, time 3 day): 90.7 x10_2/uL
- KIDNEY_L (72 h, time 3 day): 0.9 g
- KIDNEY_R (72 h, time 3 day): 0.9 g
- KIDNEY_TOTAL (72 h, time 3 day): 1.9 g
- LIVER (72 h, time 3 day): 10.1 g
- A/G (72 h, time 3 day): 0.8
- ALP (72 h, time 3 day): 1690.8 IU/L
- ALT (72 h, time 3 day): 37.2 IU/L
- AST (72 h, time 3 day): 66.4 IU/L
- BUN (72 h, time 3 day): 12.8 mg/dL
- CRE (72 h, time 3 day): 0.2 mg/dL
- Ca (72 h, time 3 day): 11.2 mg/dL
- Cl (72 h, time 3 day): 106 meq/L
- DBIL (72 h, time 3 day): 0.02 mg/dL
- GLC (72 h, time 3 day): 178.4 mg/dL
- IP (72 h, time 3 day): 7.3 mg/dL
- K (72 h, time 3 day): 4 meq/L
- LDH (72 h, time 3 day): 60.4 IU/L
- Na (72 h, time 3 day): 143 meq/L
- PL (72 h, time 3 day): 136.2 mg/dL
- RALB (72 h, time 3 day): 2.6 g/dL
- TBIL (72 h, time 3 day): 0.064 mg/dL
- TC (72 h, time 3 day): 76.8 mg/dL
- TG (72 h, time 3 day): 69.4 mg/dL
- TP (72 h, time 3 day): 5.8 g/dL
- gamma-GTP (72 h, time 3 day): 1 IU/L
- TERMINAL_BW ([…], time 7 day): 252.9 g
- TERMINAL_BW ([…], time 14 day): 320.1 g
- TERMINAL_BW ([…], time 28 day): 409.6 g
- APTT ([…], time 7 day): 19 s
- Bas ([…], time 7 day): 0.3%
- Eos ([…], time 7 day): 0.8%
- Fbg ([…], time 7 day): 288.2 mg/dL
- Hb ([…], time 7 day): 13.5 g/dL
- Ht ([…], time 7 day): 38.9%
- Lym ([…], time 7 day): 76.5%
- MCH ([…], time 7 day): 20.8 pg
- MCHC ([…], time 7 day): 34.7%
- MCV ([…], time 7 day): 60.1 fL
- Mono ([…], time 7 day): 2.5%
- Neu ([…], time 7 day): 19.2%
- PT ([…], time 7 day): 12.2 s
- Plat ([…], time 7 day): 135.8 x10_4/uL
- RBC ([…], time 7 day): 647.4 x10_4/ul
- Ret ([…], time 7 day): 5.1%
- WBC ([…], time 7 day): 94.6 x10_2/uL
- APTT ([…], time 14 day): 16.9 s
- Bas ([…], time 14 day): 0.3%
- Eos ([…], time 14 day): 0.6%
- Fbg ([…], time 14 day): 269.2 mg/dL
- Hb ([…], time 14 day): 13.9 g/dL
- Ht ([…], time 14 day): 40.5%
- Lym ([…], time 14 day): 78.2%
- MCH ([…], time 14 day): 19.9 pg
- MCHC ([…], time 14 day): 34.4%
- MCV ([…], time 14 day): 57.8 fL
- Mono ([…], time 14 day): 1.9%
- Neu ([…], time 14 day): 18.2%
- PT ([…], time 14 day): 12.2 s
- Plat ([…], time 14 day): 143.4 x10_4/uL
- RBC ([…], time 14 day): 700.6 x10_4/ul
- Ret ([…], time 14 day): 3.6%
- WBC ([…], time 14 day): 111.3 x10_2/uL
- APTT ([…], time 28 day): 17.9 s
- Bas ([…], time 28 day): 0.4%
- Eos ([…], time 28 day): 0.9%
- Fbg ([…], time 28 day): 262.8 mg/dL
- Hb ([…], time 28 day): 15 g/dL
- Ht ([…], time 28 day): 41.8%
- Lym ([…], time 28 day): 78.1%
- MCH ([…], time 28 day): 19.5 pg
- MCHC ([…], time 28 day): 35.9%
- MCV ([…], time 28 day): 54.4 fL
- Mono ([…], time 28 day): 1.8%
- Neu ([…], time 28 day): 18.2%
- PT ([…], time 28 day): 12.3 s
- Plat ([…], time 28 day): 121 x10_4/uL
- RBC ([…], time 28 day): 769 x10_4/ul
- Ret ([…], time 28 day): 2.3%
- WBC ([…], time 28 day): 105.1 x10_2/uL
- KIDNEY_L ([…], time 7 day): 1 g
- KIDNEY_R ([…], time 7 day): 1 g
- KIDNEY_TOTAL ([…], time 7 day): 2 g
- KIDNEY_L ([…], time 14 day): 1.2 g
- KIDNEY_R ([…], time 14 day): 1.2 g
- KIDNEY_TOTAL ([…], time 14 day): 2.3 g
- KIDNEY_L ([…], time 28 day): 1.3 g
- KIDNEY_R ([…], time 28 day): 1.3 g
- KIDNEY_TOTAL ([…], time 28 day): 2.6 g
- LIVER ([…], time 7 day): 11.4 g
- LIVER ([…], time 14 day): 14.3 g
- LIVER ([…], time 28 day): 16.7 g
- A/G ([…], time 7 day): 0.8
- ALP ([…], time 7 day): 1903.8 IU/L
- ALT ([…], time 7 day): 44.4 IU/L
- AST ([…], time 7 day): 67 IU/L
- BUN ([…], time 7 day): 16 mg/dL
- CRE ([…], time 7 day): 0.2 mg/dL
- Ca ([…], time 7 day): 11 mg/dL
- Cl ([…], time 7 day): 104.8 meq/L
- DBIL ([…], time 7 day): 0.02 mg/dL
- GLC ([…], time 7 day): 180.2 mg/dL
- IP ([…], time 7 day): 7 mg/dL
- K ([…], time 7 day): 4.1 meq/L
- LDH ([…], time 7 day): 58.2 IU/L
- Na ([…], time 7 day): 142 meq/L
- PL ([…], time 7 day): 135.4 mg/dL
- RALB ([…], time 7 day): 2.6 g/dL
- TBIL ([…], time 7 day): 0.048 mg/dL
- TC ([…], time 7 day): 70.6 mg/dL
- TG ([…], time 7 day): 95.2 mg/dL
- TP ([…], time 7 day): 5.9 g/dL
- gamma-GTP ([…], time 7 day): 1 IU/L
- A/G ([…], time 14 day): 0.8
- ALP ([…], time 14 day): 1384.2 IU/L
- ALT ([…], time 14 day): 32 IU/L
- AST ([…], time 14 day): 57.6 IU/L
- BUN ([…], time 14 day): 14.4 mg/dL
- CRE ([…], time 14 day): 0.2 mg/dL
- Ca ([…], time 14 day): 10.7 mg/dL
- Cl ([…], time 14 day): 105.8 meq/L
- DBIL ([…], time 14 day): 0.018 mg/dL
- GLC ([…], time 14 day): 181.4 mg/dL
- IP ([…], time 14 day): 6.6 mg/dL
- K ([…], time 14 day): 3.7 meq/L
- LDH ([…], time 14 day): 52 IU/L
- Na ([…], time 14 day): 143 meq/L
- PL ([…], time 14 day): 137 mg/dL
- RALB ([…], time 14 day): 2.7 g/dL
- TBIL ([…], time 14 day): 0.048 mg/dL
- TC ([…], time 14 day): 72.8 mg/dL
- TG ([…], time 14 day): 133.8 mg/dL
- TP ([…], time 14 day): 6 g/dL
- gamma-GTP ([…], time 14 day): 1 IU/L
- A/G ([…], time 28 day): 0.7
- ALP ([…], time 28 day): 1254.6 IU/L
- ALT ([…], time 28 day): 32.6 IU/L
- AST ([…], time 28 day): 57.6 IU/L
- BUN ([…], time 28 day): 17.8 mg/dL
- CRE ([…], time 28 day): 0.3 mg/dL
- Ca ([…], time 28 day): 10.8 mg/dL
- Cl ([…], time 28 day): 104.8 meq/L
- DBIL ([…], time 28 day): 0.02 mg/dL
- GLC ([…], time 28 day): 191 mg/dL
- IP ([…], time 28 day): 5.4 mg/dL
- K ([…], time 28 day): 4 meq/L
- LDH ([…], time 28 day): 62.2 IU/L
- Na ([…], time 28 day): 143.2 meq/L
- PL ([…], time 28 day): 134.6 mg/dL
- RALB ([…], time 28 day): 2.6 g/dL
- TBIL ([…], time 28 day): 0.054 mg/dL
- TC ([…], time 28 day): 68.6 mg/dL
- TG ([…], time 28 day): 179.6 mg/dL
- TP ([…], time 28 day): 6.2 g/dL
- gamma-GTP ([…], time 28 day): 1 IU/L
